Assay results as given in patent US10500318B1, “Dosing regimens for treating hypoxia-associated tissue damage” (Temple Therapeutics BV, priority 2018, dated 2019).
Residues, ends and D or L forms follow the SMILES beside them.

Experiments:
HIF-1α = HIF-1α ELISA in normal peritoneal fibroblasts after episodic hypoxia and Ala-Gln treatment; type: cell-based; conditions: for HIF-1α 12 hours after hypoxia initiation / HIF-1α 24 hours after hypoxia initiation: NPF
Procedure: Primary cultures of normal peritoneal fibroblasts (NPF) were established and pre-hypoxia samples were taken to determine levels of HIF-1α and Type 1 Collagen (COL1A1) under normoxic conditions prior to exposure to episodic hypoxic environments. Cultured cells were exposed to episodes of hypoxia (2% 02; 0.5, 1, 2, or 4, […] hours), followed by restoration of normoxia (20% O2) and immediate treatment with Ala-[…], 1, 2, or 10 mM). Levels of HIF-1α and COL1A1 were measured at 12 hours and 24 hours following the initiation of hypoxia. All treatments were completed in triplicate. HIF-1α and COL1A1 levels were determined by ELISA (HIF-1α ELISA (ThermoFisher Scientific) or COL1A1 ELISA (LifeSpan Biosciences), respectively, per the manufacturer's protocol). Data were analyzed with one-way ANOVA followed by Tukey's tests with Bonferroni correction. Results for HIF-1α are in Tables 1-3.

[1] = at room temperature; cited from earlier work

## C[C@H](N)C(=O)N[C@@H](CCC(N)=O)C(=O)O [AG, L-alanyl-L-glutamine] (H-Ala-Gln-OH)
HIF-1α; AG 1.0 mM, 12 h post hypoxia initiation, hypoxia time 0.5 h
  HIF-1α difference from untreated controls: 3.6 pg/mg protein
HIF-1α; AG 1.0 mM, 12 h post hypoxia initiation, hypoxia time 1.0 h
  HIF-1α difference from untreated controls: 2.3 pg/mg protein
HIF-1α; AG 1.0 mM, 12 h post hypoxia initiation, hypoxia time 2.0 h
  HIF-1α difference from untreated controls: 2.4 pg/mg protein
HIF-1α; AG 1.0 mM, 12 h post hypoxia initiation, hypoxia time 4.0 h
  HIF-1α difference from untreated controls: 0.9 pg/mg protein
HIF-1α; AG 1.0 mM, 24 h post hypoxia initiation, hypoxia time 0.5 h
  HIF-1α difference from untreated controls: 1.6 pg/mg protein
HIF-1α; AG 1.0 mM, 24 h post hypoxia initiation, hypoxia time 1.0 h
  HIF-1α difference from untreated controls: 3.1 pg/mg protein
HIF-1α; AG 1.0 mM, 24 h post hypoxia initiation, hypoxia time 2.0 h
  HIF-1α difference from untreated controls: 1.8 pg/mg protein
HIF-1α; AG 1.0 mM, 24 h post hypoxia initiation, hypoxia time 4.0 h
  HIF-1α difference from untreated controls: 0.7 pg/mg protein
HIF-1α; AG 1.0 mM, hypoxia time 0.5 h
  HIF-1α 12 hours after hypoxia initiation: 4.2 pg/mg protein
  HIF-1α 24 hours after hypoxia initiation: 3.6 pg/mg protein
HIF-1α; AG 1.0 mM, hypoxia time 1.0 h
  HIF-1α 12 hours after hypoxia initiation: 4.6 pg/mg protein
  HIF-1α 24 hours after hypoxia initiation: 4.6 pg/mg protein
HIF-1α; AG 1.0 mM, hypoxia time 2.0 h
  HIF-1α 12 hours after hypoxia initiation: 3.3 pg/mg protein
  HIF-1α 24 hours after hypoxia initiation: 3.3 pg/mg protein
HIF-1α; AG 1.0 mM, hypoxia time 4.0 h
  HIF-1α 12 hours after hypoxia initiation: 4.9 pg/mg protein
  HIF-1α 24 hours after hypoxia initiation: 4.9 pg/mg protein
HIF-1α; AG 2.0 mM, 12 h post hypoxia initiation, hypoxia time 0.5 h
  HIF-1α difference from untreated controls: 3.1 pg/mg protein
HIF-1α; AG 2.0 mM, 12 h post hypoxia initiation, hypoxia time 1.0 h
  HIF-1α difference from untreated controls: 4.5 pg/mg protein
HIF-1α; AG 2.0 mM, 12 h post hypoxia initiation, hypoxia time 2.0 h
  HIF-1α difference from untreated controls: 2.5 pg/mg protein
HIF-1α; AG 2.0 mM, 12 h post hypoxia initiation, hypoxia time 4.0 h
  HIF-1α difference from untreated controls: 1.4 pg/mg protein
HIF-1α; AG 2.0 mM, 24 h post hypoxia initiation, hypoxia time 0.5 h
  HIF-1α difference from untreated controls: 1.1 pg/mg protein
HIF-1α; AG 2.0 mM, 24 h post hypoxia initiation, hypoxia time 1.0 h
  HIF-1α difference from untreated controls: 5.3 pg/mg protein
HIF-1α; AG 2.0 mM, 24 h post hypoxia initiation, hypoxia time 2.0 h
  HIF-1α difference from untreated controls: 1.9 pg/mg protein
HIF-1α; AG 2.0 mM, 24 h post hypoxia initiation, hypoxia time 4.0 h
  HIF-1α difference from untreated controls: 1.2 pg/mg protein
HIF-1α; AG 2.0 mM, hypoxia time 0.5 h
  HIF-1α 12 hours after hypoxia initiation: 4.7 pg/mg protein
  HIF-1α 24 hours after hypoxia initiation: 4.1 pg/mg protein
HIF-1α; AG 2.0 mM, hypoxia time 1.0 h
  HIF-1α 12 hours after hypoxia initiation: 2.4 pg/mg protein
  HIF-1α 24 hours after hypoxia initiation: 2.4 pg/mg protein
HIF-1α; AG 2.0 mM, hypoxia time 2.0 h
  HIF-1α 12 hours after hypoxia initiation: 3.2 pg/mg protein
  HIF-1α 24 hours after hypoxia initiation: 3.2 pg/mg protein
HIF-1α; AG 2.0 mM, hypoxia time 4.0 h
  HIF-1α 12 hours after hypoxia initiation: 4.4 pg/mg protein
  HIF-1α 24 hours after hypoxia initiation: 4.4 pg/mg protein
HIF-1α; AG 10.0 mM, 12 h post hypoxia initiation, hypoxia time 0.5 h
  HIF-1α difference from untreated controls: 2.6 pg/mg protein
HIF-1α; AG 10.0 mM, 12 h post hypoxia initiation, hypoxia time 1.0 h
  HIF-1α difference from untreated controls: 3.0 pg/mg protein
HIF-1α; AG 10.0 mM, 12 h post hypoxia initiation, hypoxia time 2.0 h
  HIF-1α difference from untreated controls: 1.6 pg/mg protein
HIF-1α; AG 10.0 mM, 12 h post hypoxia initiation, hypoxia time 4.0 h
  HIF-1α difference from untreated controls: 0.3 pg/mg protein
HIF-1α; AG 10.0 mM, 24 h post hypoxia initiation, hypoxia time 0.5 h
  HIF-1α difference from untreated controls: 1.6 pg/mg protein
HIF-1α; AG 10.0 mM, 24 h post hypoxia initiation, hypoxia time 1.0 h
  HIF-1α difference from untreated controls: 3.8 pg/mg protein
HIF-1α; AG 10.0 mM, 24 h post hypoxia initiation, hypoxia time 2.0 h
  HIF-1α difference from untreated controls: 1 pg/mg protein
HIF-1α; AG 10.0 mM, 24 h post hypoxia initiation, hypoxia time 4.0 h
  HIF-1α difference from untreated controls: 0.1 pg/mg protein
HIF-1α; AG 10.0 mM, hypoxia time 0.5 h
  HIF-1α 12 hours after hypoxia initiation: 5.2 pg/mg protein
  HIF-1α 24 hours after hypoxia initiation: 3.6 pg/mg protein
HIF-1α; AG 10.0 mM, hypoxia time 1.0 h
  HIF-1α 12 hours after hypoxia initiation: 3.9 pg/mg protein
  HIF-1α 24 hours after hypoxia initiation: 3.9 pg/mg protein
HIF-1α; AG 10.0 mM, hypoxia time 2.0 h
  HIF-1α 12 hours after hypoxia initiation: 4.1 pg/mg protein
  HIF-1α 24 hours after hypoxia initiation: 4.1 pg/mg protein
HIF-1α; AG 10.0 mM, hypoxia time 4.0 h
  HIF-1α 12 hours after hypoxia initiation: 5.5 pg/mg protein
  HIF-1α 24 hours after hypoxia initiation: 5.5 pg/mg protein
HIF-1α; Average all doses, 12 h post hypoxia initiation, hypoxia time 0.5 h
  HIF-1α difference from untreated controls: 3.1 pg/mg protein
HIF-1α; Average all doses, 12 h post hypoxia initiation, hypoxia time 1.0 h
  HIF-1α difference from untreated controls: 3.27 pg/mg protein
HIF-1α; Average all doses, 12 h post hypoxia initiation, hypoxia time 2.0 h
  HIF-1α difference from untreated controls: 2.17 pg/mg protein
HIF-1α; Average all doses, 12 h post hypoxia initiation, hypoxia time 4.0 h
  HIF-1α difference from untreated controls: 0.87 pg/mg protein
HIF-1α; Average all doses, 24 h post hypoxia initiation, hypoxia time 0.5 h
  HIF-1α difference from untreated controls: 1.43 pg/mg protein
HIF-1α; Average all doses, 24 h post hypoxia initiation, hypoxia time 1.0 h
  HIF-1α difference from untreated controls: 4.07 pg/mg protein
HIF-1α; Average all doses, 24 h post hypoxia initiation, hypoxia time 2.0 h
  HIF-1α difference from untreated controls: 1.57 pg/mg protein
HIF-1α; Average all doses, 24 h post hypoxia initiation, hypoxia time 4.0 h
  HIF-1α difference from untreated controls: 0.67 pg/mg protein
HIF-1α; at 12 and 24 hours, all durations of hypoxia
  effect on HIF-1α as compared to untreated cells: reduction of HIF-1α

## NC(=O)CC[C@H](N)C(=O)O [L-glutamine]
[1]
  water solubility: about 40 g/L
